Test systems include OVCAR-3 ovarian; SK-MEL-5 melanoma; SF-539 CNS; UACC-62 melanoma; HOP-62 NSCLC; UACC-257 melanoma; EKVX NSCLC; IGROV1 ovarian; KM12 colon; SK-OV-3 ovarian; HT29 colon; MALME-3M melanoma.
Holding throughout (assay): NCI-60 cell line screen, 48 h

“And” between values parts separate entries of the source, which are not always exact repeats. Equal values may be shown once.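 These data come from cells grown in 96-well plates and exposed to compound for 48 hours at five concentrations. At the GI50, growth is halved. TGI: total growth inhibition.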 Where a SMILES comes first, the peptide text is derived from it. Some results are limits rather than exact numbers.

Among the data in PubChem BioAssay (NCI) are TGI and GI50 values, retold here.

In the case of `CC1=CC(C2/C(=N/O)C=C(C)CC2(C)C)C(O)C(C)(C)C1` (centres undefined), the TGI in the experiment on OVCAR-3 ovarian amounted to 23.3 µM; with SK-MEL-5 melanoma it was 29.5 µM; in the experiment on SF-539 CNS, 41.7 µM; in the experiment with UACC-62 melanoma, 29.4 µM; in the experiment on HOP-62 NSCLC it was 29.5 µM; with UACC-257 melanoma, 30.1 µM. In addition, the TGI came out at 31.4 µM with EKVX NSCLC; 32.6 µM with IGROV1 ovarian; 31.6 µM with KM12 colon; 38.1 µM in the experiment with SK-OV-3 ovarian; 29.3 µM with HT29 colon.

For the compound `CCOC(=O)c1csc(NC(=O)C(C)N2CCCCC2)n1` (centres undefined), the TGI with OVCAR-3 ovarian, with MALME-3M melanoma, with SK-MEL-5 melanoma, with SF-539 CNS, in the experiment with UACC-62 melanoma and in the experiment on HOP-62 NSCLC was > 100 µM in each case. The TGI in the experiment on UACC-257 melanoma, in the experiment on EKVX NSCLC, in the experiment on IGROV1 ovarian, in the experiment with KM12 colon, with SK-OV-3 ovarian and in the experiment on HT29 colon was > 100 µM each time.

For the compound `OCC1OC(n2cnc3c2NC=NC[C@H]3O)C(O)C1O` (some centres undefined), the TGI was > 450 µM with OVCAR-3 ovarian; > 450 µM with MALME-3M melanoma; > 71.3 µM in the experiment on SK-MEL-5 melanoma; > 450 µM in the experiment on SF-539 CNS; > 450 µM in the experiment on UACC-62 melanoma; > 419 µM with HOP-62 NSCLC. Moreover, the TGI in the experiment with UACC-257 melanoma, with EKVX NSCLC, with IGROV1 ovarian, in the experiment on KM12 colon, in the experiment on SK-OV-3 ovarian and in the experiment on HT29 colon was > 450 µM in each case.

With `COC(=O)C1OC(Oc2cc(O)c3c(=O)cc(-c4ccc(O)cc4)oc3c2)C(O)C(O)C1O` (centres undefined), the TGI in the experiment with OVCAR-3 ovarian, in the experiment on MALME-3M melanoma, in the experiment with SK-MEL-5 melanoma, in the experiment on SF-539 CNS, with UACC-62 melanoma and in the experiment with HOP-62 NSCLC was > 100 µM in each case. Besides, the TGI in the experiment with UACC-257 melanoma, in the experiment on EKVX NSCLC, in the experiment on IGROV1 ovarian, in the experiment with KM12 colon, in the experiment on SK-OV-3 ovarian and in the experiment on HT29 colon was > 100 µM each time.

On to `CN(C)C(=O)NCCN1CCCCCc2ccccc21`, for which the TGI in the experiment with OVCAR-3 ovarian was > 100 µM; with MALME-3M melanoma, > 100 µM; with SK-MEL-5 melanoma, 71.9 µM; in the experiment on SF-539 CNS, > 100 µM; with UACC-62 melanoma, > 100 µM; with HOP-62 NSCLC, > 100 µM. For the same compound, the TGI in the experiment on UACC-257 melanoma, with EKVX NSCLC, in the experiment on IGROV1 ovarian, in the experiment with KM12 colon, with SK-OV-3 ovarian and with HT29 colon was > 100 µM each time.

As to `COc1ccnc2c1C(=O)c1nc3ccccc3c3ccnc-2c13`, the TGI in the experiment with OVCAR-3 ovarian was > 100 µM; in the experiment on MALME-3M melanoma, 1.3 µM; in the experiment on SK-MEL-5 melanoma, 0.437 µM; in the experiment with SF-539 CNS it was 33.7 µM; with UACC-62 melanoma it was 0.504 µM; in the experiment on HOP-62 NSCLC, 5.34 µM. In addition, the TGI with UACC-257 melanoma is 0.536 µM; in the experiment on EKVX NSCLC, 2.62 µM; in the experiment with IGROV1 ovarian it was 0.704 µM; with KM12 colon it was 0.588 µM; in the experiment with SK-OV-3 ovarian it was 0.645 µM; in the experiment with HT29 colon, 0.89 µM.

Turning to `O=C1NC(=O)C(CCO)(c2ccccc2)C(=O)N1`, the TGI with OVCAR-3 ovarian, with MALME-3M melanoma, in the experiment with SK-MEL-5 melanoma, with SF-539 CNS, with UACC-62 melanoma and with HOP-62 NSCLC was > 100 µM throughout. Moreover, the TGI in the experiment on UACC-257 melanoma, with EKVX NSCLC, in the experiment with IGROV1 ovarian, in the experiment with KM12 colon, with SK-OV-3 ovarian and in the experiment on HT29 colon was > 100 µM in each case.

For `O=C(CC(c1ccccc1)N1CCCCC1)c1ccccc1` (centres undefined), the TGI with OVCAR-3 ovarian is 23.9 µM; in the experiment with MALME-3M melanoma, 30.7 µM; in the experiment on SK-MEL-5 melanoma, 29.6 µM; in the experiment on SF-539 CNS it was 39.2 µM; in the experiment with UACC-62 melanoma, 30.7 µM; in the experiment with HOP-62 NSCLC it was 33.9 µM. Also, the TGI worked out at 27.8 µM in the experiment on UACC-257 melanoma; 34.5 µM with EKVX NSCLC; 29.1 µM in the experiment with IGROV1 ovarian; 22.6 µM in the experiment with KM12 colon; 31.4 µM in the experiment on SK-OV-3 ovarian; 29.5 µM in the experiment on HT29 colon.

For the compound `C=CCn1c(=O)n(CC=C)c(=O)n(CC=C)c1=O`, the TGI with OVCAR-3 ovarian, with MALME-3M melanoma, in the experiment with SK-MEL-5 melanoma, in the experiment with SF-539 CNS, in the experiment with UACC-62 melanoma and in the experiment with HOP-62 NSCLC was > 100 µM in each case. Besides, the TGI in the experiment on UACC-257 melanoma, in the experiment with EKVX NSCLC, in the experiment with IGROV1 ovarian, in the experiment with KM12 colon and in the experiment with SK-OV-3 ovarian was > 100 µM throughout.

Consider `O=c1c(-c2ccccc2)c(SCCCN2CCN(c3cccc(Cl)c3)CC2)n(-c2ccccc2)c(=S)n1-c1ccccc1`, for which the TGI in the experiment on OVCAR-3 ovarian, in the experiment on MALME-3M melanoma, in the experiment with SK-MEL-5 melanoma, in the experiment with SF-539 CNS, in the experiment on UACC-62 melanoma and in the experiment with HOP-62 NSCLC was > 100 µM throughout. In addition, the TGI in the experiment on UACC-257 melanoma, in the experiment with EKVX NSCLC, in the experiment with IGROV1 ovarian, in the experiment with KM12 colon, in the experiment on SK-OV-3 ovarian and in the experiment on HT29 colon was > 100 µM each time.

Regarding `C=C1C(=O)O[C@H]2[C@H]1[C@@H](OC(=O)C=C(C)C)CC1=C[C@@H](C[C@@]3(C)O[C@@H]23)OC1=O`, the GI50 in the experiment on OVCAR-3 ovarian was 4.92 µM; in the experiment with MALME-3M melanoma, 3.22 µM; in the experiment with UACC-62 melanoma, 11.3 µM; in the experiment with HOP-62 NSCLC it was 60.9 µM; with EKVX NSCLC, 839 nM; with IGROV1 ovarian, 14.2 µM. The GI50 in the experiment on KM12 colon is 10.4 µM; in the experiment with SK-OV-3 ovarian it was 25 µM. Further, the TGI was 4.77 µM and 15.6 µM in the experiment on OVCAR-3 ovarian; 22.6 µM and 8.1 µM with MALME-3M melanoma; 15 µM in the experiment with SK-MEL-5 melanoma; 5.29 µM in the experiment with SF-539 CNS; 12.8 µM and 31.6 µM in the experiment on UACC-62 melanoma; 52.2 µM and 187 µM in the experiment with HOP-62 NSCLC. Besides, the TGI with UACC-257 melanoma is 6.88 µM; in the experiment with EKVX NSCLC, 10.2 µM and 5.83 µM; with IGROV1 ovarian, 27 µM and 34.4 µM; in the experiment with KM12 colon it was 15.7 µM and 29.7 µM; in the experiment with SK-OV-3 ovarian it was 36.9 µM and 43.9 µM; in the experiment on HT29 colon, 12.5 µM.

Take `CCC(C)C(NC(=O)C(CCCCN)NC(=O)C(NC(=O)C(CCC(N)=O)NC(=O)C(N)CCCNC(=N)N)C(C)CC)C(=O)NC(Cc1c[nH]c2ccccc12)C(=O)NC(Cc1ccccc1)C(=O)NC(CCC(N)=O)C(=O)NC(CC(N)=O)C(=O)NC(CCCNC(=N)N)C(=O)NC(CCCNC(=N)N)C(=O)NC(CCSC)C(=O)NC(CCCCN)C(=O)NC(Cc1c[nH]c2ccccc12)C(=O)NC(CCCCN)C(=O)NC(CCCCN)C(=O)N1CCCC1C(=O)NC(C)C(=O)NC(CCCCN)C(=O)NC(CCCNC(=N)N)C(=O)NC(CCCCN)C(=O)NC(CC(C)C)C(=O)NC(Cc1ccccc1)C(=O)NCC(=O)O` (centres undefined) (H-RQIKIWFQNRRMKWKKPAKRKLFG-OH; configuration not given here): the TGI with OVCAR-3 ovarian is > 25 µM; with MALME-3M melanoma, 18.3 µM; in the experiment with SK-MEL-5 melanoma it was > 25 µM; in the experiment with HOP-62 NSCLC it was > 25 µM; in the experiment with UACC-257 melanoma it was > 25 µM; in the experiment on EKVX NSCLC, > 25 µM. Also, the TGI with IGROV1 ovarian, in the experiment on KM12 colon, in the experiment on SK-OV-3 ovarian and in the experiment with HT29 colon was > 25 µM in each case.

As for `CCCCN1C=CN2c3nc4cc(C)c(C)cc4n3C(C(=O)OC)=C(C(=O)OC)C12` (centres undefined), the TGI with OVCAR-3 ovarian, in the experiment on MALME-3M melanoma, in the experiment on SK-MEL-5 melanoma, in the experiment with SF-539 CNS, in the experiment with UACC-62 melanoma and with HOP-62 NSCLC was > 100 µM in each case. Also, the TGI in the experiment on UACC-257 melanoma, in the experiment on EKVX NSCLC, with IGROV1 ovarian, in the experiment with SK-OV-3 ovarian and in the experiment with HT29 colon was > 100 µM in each case.
